Measurements as given in US9029337B2, “Modulation of factor 7 expression” (Isis Pharmaceuticals, Inc., priority 2007, dated 2015).
Strand notation (5' to 3'): a small letter for the sugar, then the base; units joined by * are phosphorothioate-linked, units joined directly phosphodiester-linked; [ ] holds rarer units or linkages, { } end groups; capitals alone tell only the bases. e = 2'-O-(2-methoxyethyl) (MOE); [5mC] = 5-methylcytosine; d = 2'-deoxy (DNA)

Experiments:
Assay type in all cases: cell-based
human Factor 7 mRNA [1] = experiment: Antisense inhibition of human Factor 7 mRNA in HepB3 cells, 50 nM antisense oligonucleotide, lipofectin; details: for % Inhibition: Table 13 (microwalk), 50 nM, lipofectin, approximately 24 hours
Outline: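 After transfection of wells containing 4,000 cells, treatment ran for approximately 24 h. RIBOGREEN®-measured total RNA served for normalisation, and inhibition was calculated as a percentage of untreated control.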

human Factor 7 mRNA [2] = experiment: Dose-dependent antisense inhibition of human Factor 7 in HepB3 cells, lipofectin; details: HepB3 cells, approx. 16 hours (Table 14)
Procedure: Cells were plated at a density of 4,000 cells per well and treated with lipofectin reagent with 3.125 nM, 6.25 nM, 12.5 nM, 25 nM, 50 nM, and 100 nM concentrations of antisense oligonucleotide, as indicated in Table 3. After a treatment period of approximately 16 hours, RNA was isolated from the cells and Factor 7 mRNA levels were measured by real-time RT-PCR, as described herein. Human Factor 7 primer probe set RTS 2927 (forward sequence: […], incorporated herein as SEQ ID NO: 164; reverse sequence: […], incorporated herein as SEQ ID NO: 165; probe sequence: TGGGTGGTCTCCGCGGCCX, incorporated herein as SEQ ID NO: 166) was used to measure mRNA levels. Factor 7 mRNA levels were adjusted according to total RNA content as measured by RIBOGREEN®. Results are presented as percent inhibition of Factor 7, relative to untreated control cells.
Cells were plated at a density of 4,000 cells per well and transfected using lipofectin reagent with 6.25 nM, 12.5 nM, 25.0 nM, 50.0 nM, and 100.0 nM concentrations of antisense oligonucleotide, as indicated in Table 7. After a treatment period of approximately 16 hours, RNA was isolated from the cells and Factor 7 mRNA levels were measured by real-time RT-PCR, as described herein. Human Factor 7 primer probe set RTS 2927 was used to measure mRNA levels. Factor 7 mRNA levels were adjusted according to total RNA content as measured by RIBOGREEN®. Results are presented as percent inhibition of Factor 7, relative to untreated control cells.
(§1) Cells were plated at a density of 4,000 cells per well and transfected using lipofectin reagent with 3.125 nM, 6.25 nM, 12.5 nM, 25 nM, 50 nM, and 100 nM concentrations of antisense oligonucleotide, as specified in Table 14. After a treatment period of approximately 16 hours, RNA was isolated from the cells and Factor 7 mRNA levels were measured by quantitative real-time PCR. Human Factor 7 primer probe set RTS 2927 was used to measure mRNA levels. Factor 7 mRNA levels were adjusted according to total RNA content, as measured by RIBOGREEN®. Results are presented as percent inhibition of Factor 7, relative to untreated control cells.

human Factor 7 mRNA [3] = experiment: Dose-dependent antisense inhibition of human Factor 7 in HepB3 cells, electroporation
Procedure: as §1, with “The gapmers were also transfected via electroporation and their dose-dependent inhibition of human Factor 7 mRNA was measured. Cells” for “Cells”, “20,000” for “4,000”, “via electroporation” for “using lipofectin reagent”, “μM,” for “nM,”, “μM” for “nM”, “15.” for “14.”
Cells were plated at a density of 20,000 cells per well and transfected via electroporation with 3.125 μM, 6.25 μM, 12.5 μM, 25 μM, 50 μM, and 100 μM concentrations of antisense oligonucleotide, as specified in […]. After a treatment period of approximately 16 hours, RNA was isolated from the cells and human Factor 7 mRNA levels were measured by quantitative real-time PCR. Human Factor 7 primer probe set RTS 2927 was used to measure mRNA levels. Factor 7 mRNA levels were adjusted according to total RNA content, as measured by RIBOGREEN®. Results are presented as percent inhibition of Factor 7, relative to untreated control cells.

human Factor 7 mRNA [4] = experiment: Antisense inhibition of human Factor 7 with short (14-mer) oligonucleotides in HepB3 cells, electroporation 1,000 nM; details: electroporation, 1,000 nM antisense oligonucleotide, approximately 24 hours, Factor 7 mRNA relative to untreated control cells
Outline: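 14-mer 2-10-2 MOE gapmers (full phosphorothioate, 5-methyl-C) electroporated at 1,000 nM into HepB3 cells at 20,000 cells/well. After ~24 h, Factor 7 mRNA by real-time RT-PCR, normalized to RiboGreen total RNA. Reported as % inhibition relative to untreated cells.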

[5] = 3.125 μM, approx. 16 hours (Table 15, Example 7)
[6] = 3.125 μM, approx. 16 hours (Table 16, Example 8 confirmation)
[7] = 6.25 μM, approx. 16 hours (Table 15, Example 7)
[8] = 6.25 μM, approx. 16 hours (Table 16, Example 8 confirmation)
[9] = 12.5 μM, approx. 16 hours (Table 15, Example 7)
[10] = 12.5 μM, approx. 16 hours (Table 16, Example 8 confirmation)
[11] = 25 μM, approx. 16 hours (Table 15, Example 7)
[12] = 25 μM, approx. 16 hours (Table 16, Example 8 confirmation)
[13] = 50 μM, approx. 16 hours (Table 15, Example 7)
[14] = 50 μM, approx. 16 hours (Table 16, Example 8 confirmation)
[15] = 100 μM, approx. 16 hours (Table 15, Example 7)
[16] = 100 μM, approx. 16 hours (Table 16, Example 8 confirmation)

Substance | percent inhibition of Factor 7 mRNA, relative to untreated control cells (human Factor 7 mRNA [2]; 3.125 nM) [%] | percent inhibition of Factor 7 mRNA, relative to untreated control cells (human Factor 7 mRNA [2]; 12.5 nM) [%] | percent inhibition of Factor 7 mRNA, relative to untreated control cells (human Factor 7 mRNA [2]; 25 nM) [%] | percent inhibition of Factor 7 mRNA, relative to untreated control cells (human Factor 7 mRNA [2]; 50 nM) [%] | percent inhibition of Factor 7 mRNA, relative to untreated control cells (human Factor 7 mRNA [2]; 100 nM) [%] | percent inhibition of Factor 7 mRNA, relative to untreated control cells (human Factor 7 mRNA [2]) [%] | percent inhibition of Factor 7 mRNA, relative to untreated control cells (human Factor 7 mRNA [3]; [5]) [%] | percent inhibition of Factor 7 mRNA, relative to untreated control cells (human Factor 7 mRNA [3]; [7]) [%] | percent inhibition of Factor 7 mRNA, relative to untreated control cells (human Factor 7 mRNA [3]; [9]) [%] | percent inhibition of Factor 7 mRNA, relative to untreated control cells (human Factor 7 mRNA [3]; [11]) [%] | percent inhibition of Factor 7 mRNA, relative to untreated control cells (human Factor 7 mRNA [3]; [13]) [%] | percent inhibition of Factor 7 mRNA, relative to untreated control cells (human Factor 7 mRNA [3]; [15]) [%] | % Inhibition (human Factor 7 mRNA [4]) [%] | also measured
422086 (antisense eT*eG*e[5mC]*eA*eT*dG*dG*dT*dG*dA*dT*dG*d[5mC]*dT*dT*e[5mC]*eT*eG*eA*eA) [compound 422086] | 8 | 46 | 65 | 83 | 90 | 26 | 20 | 34 | 44 | 63 | 75 | 84 | – | % Inhibition (human Factor 7 mRNA [1]): 81%; percent inhibition of Factor 7 mRNA, relative to untreated control cells (human Factor 7 mRNA [3]; [6]): 25%; percent inhibition of Factor 7 mRNA, relative to untreated control cells (human Factor 7 mRNA [3]; [8]): 48%; percent inhibition of Factor 7 mRNA, relative to untreated control cells (human Factor 7 mRNA [3]; [10]): 74%; percent inhibition of Factor 7 mRNA, relative to untreated control cells (human Factor 7 mRNA [3]; [12]): 82%; percent inhibition of Factor 7 mRNA, relative to untreated control cells (human Factor 7 mRNA [3]; [14]): 86%; percent inhibition of Factor 7 mRNA, relative to untreated control cells (human Factor 7 mRNA [3]; [16]): 90%
422087 (antisense e[5mC]*eA*eT*eG*e[5mC]*dA*dT*dG*dG*dT*dG*dA*dT*dG*d[5mC]*eT*eT*e[5mC]*eT*eG) [compound 422087] | 14 | 51 | 73 | 83 | 90 | 24 | 22 | 26 | 48 | 57 | 72 | 80 | – | % Inhibition (human Factor 7 mRNA [1]): 83%; percent inhibition of Factor 7 mRNA, relative to untreated control cells (human Factor 7 mRNA [3]; [6]): 19%; percent inhibition of Factor 7 mRNA, relative to untreated control cells (human Factor 7 mRNA [3]; [8]): 38%; percent inhibition of Factor 7 mRNA, relative to untreated control cells (human Factor 7 mRNA [3]; [10]): 66%; percent inhibition of Factor 7 mRNA, relative to untreated control cells (human Factor 7 mRNA [3]; [12]): 75%; percent inhibition of Factor 7 mRNA, relative to untreated control cells (human Factor 7 mRNA [3]; [14]): 80%; percent inhibition of Factor 7 mRNA, relative to untreated control cells (human Factor 7 mRNA [3]; [16]): 87%
422096 (antisense eA*eG*eA*e[5mC]*eA*dA*dT*dG*dG*dT*d[5mC]*dA*dG*dG*dG*e[5mC]*eT*eG*eG*eT) [compound 422096] | 17 | 43 | 60 | 68 | 82 | 23 | 26 | 30 | 46 | 50 | 62 | 85 | – | % Inhibition (human Factor 7 mRNA levels) (human Factor 7 mRNA [1]; oligonucleotides targeted to nucleobases 11830 to 11869 of SEQ ID NO: 1 (Table 9)): 76%
435846 (antisense eT*eG*dG*dA*dG*dA*dG*dA*d[5mC]*d[5mC]*dA*dA*eT*eG) [compound 435846] | – | – | – | – | – | – | – | – | – | – | – | – | 7 | –
435847 (antisense eT*eG*dG*dT*dG*dT*dG*d[5mC]*dA*d[5mC]*dA*d[5mC]*eA*eT) [compound 435847] | – | – | – | – | – | – | – | – | – | – | – | – | 36 | –
435848 (antisense eT*eG*dG*d[5mC]*d[5mC]*dA*d[5mC]*dT*dG*d[5mC]*d[5mC]*dT*e[5mC]*eA) [compound 435848] | – | – | – | – | – | – | – | – | – | – | – | – | 32 | –
435849 (antisense eT*eG*d[5mC]*d[5mC]*dG*dT*dA*dG*dT*dG*dG*d[5mC]*e[5mC]*eG) [compound 435849] | – | – | – | – | – | – | – | – | – | – | – | – | 31 | –
435850 (antisense e[5mC]*eT*dT*dG*dG*d[5mC]*d[5mC]*dA*dG*dT*dG*dT*eG*eG) [compound 435850] | – | – | – | – | – | – | – | – | – | – | – | – | 15 | –
435851 (antisense eA*e[5mC]*dA*dG*dG*d[5mC]*d[5mC]*dA*dG*dG*d[5mC]*dT*eG*eG) [compound 435851] | – | – | – | – | – | – | – | – | – | – | – | – | 0 | –
